Source: patent US20260327628A1, “AN RNA APTAMER THAT BINDS TO ASP7967 OR AN ANALOGUE THEREOF” (priority 2022, published 2026)

Assays:
[1] = test system: a8-AC17-4-CPP riboswitch (EGFP expression in HEK293 cells); assay: Riboswitch assay in HEK293 cells, a8-AC17-4-CPP, ligand response; format: cell-based; details: for fold induction at 5 µM: 48 h, 5 μM ligand, HEK293 cells, read-out: activation of EGFP / gene expression (ON/OFF)
Protocol: (§1) HEK293 cells were cultured in Dulbecco's modified Eagle's medium (DMEM) supplemented with 10% heat-inactivated FBS (Gibco) containing 2 mM L-glutamine and 100 units ml^−1 of penicillin-streptomycin (DMEM-FBS). Cells were kept in a 37° C. incubator with 5% CO2 and passaged regularly upon reaching 90% confluency. Approximately 20 h prior to transfection, the cells were trypsinized, diluted to ~2.7×10^5 cells ml^−1 and 100 μl per well were seeded onto a 96-well plate. Cells in each well were cotransfected with 100 ng of the EGFP-aptazyme plasmid and 20 ng of pCMV-mCherry^27 (transfection control) using 0.3 μl of TransIT-293 Transfection Reagent (Mirus) according to the manufacturer's instructions. Five hours after transfection, the medium in each well was replaced with fresh medium with (up to 5 μM) or without ASP2905 or ASP7967. The aptamer ligands were dissolved at 1000× concentration in DMSO. Forty-eight hours after transfection, the medium in each well was replaced with 100 μl of phosphate buffered saline (PBS), and fluorescence intensity was measured by Infinite M1000 PRO microplate reader (Tecan). Fluorescence intensity was measured at 484 nm excitation/510 nm emission/5 nm bandwidth for EGFP, and at 587 nm excitation/610 nm emission/10 nm bandwidth for mCherry. Background fluorescence measured using untransfected cells was subtracted from the EGFP and mCherry fluorescence values. Then, EGFP fluorescence was normalized by mCherry fluorescence to account for variations in transfection efficiency and cell counts. All reported values are averages of three replicate wells.
The anti-Rz sequence was varied from 6 to 10 nucleotides, and the aptazyme was inserted in the 3′ UTR of the EGFP transcript.
The EGFP-riboswitch plasmid and an mCherry-expressing plasmid (transfection control) were cotransfected into HEK293 cells in the absence or presence (5 μM) of ASP2905 or ASP7967. EGFP and mCherry fluorescence was measured two days after transfection, and EGFP fluorescence was normalized by mCherry fluorescence to account for variability in transfection efficiency. […] We attribute this to the coincidental complementarity of the nucleotides preceding anti-Rz (CA) to the ribozyme sequence, making the effective anti-Rz sequence length longer than intended.
The riboswitch a8-AC17-4-CPP was further analyzed for the dose dependent response to ASP7967 (FIG. 6d).

[2] = test system: aptazyme-based riboswitches (AC17-4); assay: cells; format: cell-based; details: Homo sapiens, 48 h; ligand as low as 5 μM in culture medium, HEK293 cells; read-out: activation of gene expression
Protocol: as §1, with “Five hours after transfection, the medium in each well was replaced with fresh medium with (up to 5 μM) or without ASP2905 or ASP7967. The aptamer ligands were dissolved at 1000× concentration in DMSO.” left out, “All reported values are averages of three replicate wells.” left out

`Fc1ccc(Nc2nc(NCc3ncccn3)nc(Nc3ccccc3)n2)cc1` [ASP2905, reference compound] showed a fold induction at 5 µM ([1]; Homo sapiens) of roughly 10 and a fold induction at 5 µM [2] greater than 10.

For `Fc1ccc(Nc2nc(NCc3ncccn3)nc(Nc3ccc(F)cc3)n2)cc1` [ASP7967], the “ASP7967 concentration at which riboswitch response mostly saturated” value [1] was 5 µM, the fold induction at 5 µM ([1]; Homo sapiens) was roughly 10 and the EC50 ([1]; Homo sapiens, HEK293, dose dependent response) was roughly 1.1 µM. For the same compound, the fold induction at 5 µM [2] was greater than 10.
